# Results from PMC11845477, “Exploring the principles behind antibiotics with limited resistance” (Nature Communications, 2025).
# Assays:
# [1] = test system: K. pneumoniae ATCC 10031 (SEN) and K. pneumoniae ATCC 700603 (MDR); test: Adaptive laboratory evolution (ALE), relative MIC of evolved lines; type: cell-based, Klebsiella pneumoniae; conditions: for Relative MIC (log10): KP-SEN (Klebsiella pneumoniae ATCC 10031)
# In short: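 Ten parallel populations per antibiotic–ancestor pair were evolved in MHB at 37 °C, starting near 50% growth-inhibiting drug. Every 72 h they were passaged into 0.5–2.5× increasing concentrations, keeping the highest-drug well with OD600 > 0.2.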
# [2] = test system: A. baumannii ATCC 17978 (SEN) and A. baumannii ATCC BAA-1605 (MDR); test: Frequency-of-resistance (FoR) assay, relative MIC of mutants; type: cell-based, Acinetobacter baumannii; conditions: Acinetobacter baumannii ATCC 17978 (AB-SEN)
# In short: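 Spontaneous resistant mutants selected on antibiotic agar (≈10^10 cells, 48 h, 37 °C); MICs of ten picked colonies measured by 18 h broth microdilution (OD600 < 0.05 = inhibition) and expressed as MICevolved/MICancestor.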
compound,measurement,setting,value
C[C@H]1c2cccc(O)c2C(=O)C2=C(O)[C@]3(O)C(=O)C(C(N)=O)=C(O)[C@@H](N(C)C)[C@@H]3[C@@H](O)[C@@H]21 [Doxycycline],Relative MIC,"[1]; KP-SEN (ATCC 10031), evolved line 1, MIC of evolved line / MIC of ancestor",32
same,Relative MIC,"[1]; KP-SEN (ATCC 10031), evolved line 2, MIC of evolved line / MIC of ancestor",64
same,Relative MIC,"[1]; KP-SEN (ATCC 10031), evolved line 3, MIC of evolved line / MIC of ancestor",32
same,Relative MIC,"[1]; KP-SEN (ATCC 10031), evolved line 4, MIC of evolved line / MIC of ancestor",256
same,Relative MIC,"[1]; KP-SEN (ATCC 10031), evolved line 5, MIC of evolved line / MIC of ancestor",256
same,Relative MIC,"[1]; KP-SEN (ATCC 10031), evolved line 6, MIC of evolved line / MIC of ancestor",256
same,Relative MIC,"[1]; KP-SEN (ATCC 10031), evolved line 7, MIC of evolved line / MIC of ancestor",256
same,Relative MIC,"[1]; KP-SEN (ATCC 10031), evolved line 8, MIC of evolved line / MIC of ancestor",256
same,Relative MIC,"[1]; KP-SEN (ATCC 10031), evolved line 9, MIC of evolved line / MIC of ancestor",256
same,Relative MIC,"[1]; KP-SEN (ATCC 10031), evolved line 10, MIC of evolved line / MIC of ancestor",128
same,Relative MIC (log10),[1]; evolved line 4 adapted to the named antibiotic,2.408
same,Relative MIC (log10),[1]; evolved line 5 adapted to the named antibiotic,2.408
same,Relative MIC (log10),[1]; evolved line 6 adapted to the named antibiotic,2.408
same,Relative MIC (log10),[1]; evolved line 8 adapted to the named antibiotic,2.408
same,Relative MIC (log10),[1]; evolved line 9 adapted to the named antibiotic,2.408
same,Relative MIC,"[1]; Klebsiella pneumoniae ATCC 10031 (KP-SEN), evolved line 1",32
same,Relative MIC,"[1]; Klebsiella pneumoniae ATCC 10031 (KP-SEN), evolved line 2",64
same,Relative MIC,"[1]; Klebsiella pneumoniae ATCC 10031 (KP-SEN), evolved line 3",32
same,Relative MIC,"[1]; Klebsiella pneumoniae ATCC 10031 (KP-SEN), evolved line 4",256
same,Relative MIC,"[1]; Klebsiella pneumoniae ATCC 10031 (KP-SEN), evolved line 5",256
same,Relative MIC,"[1]; Klebsiella pneumoniae ATCC 10031 (KP-SEN), evolved line 6",256
same,Relative MIC,"[1]; Klebsiella pneumoniae ATCC 10031 (KP-SEN), evolved line 7",256
same,Relative MIC,"[1]; Klebsiella pneumoniae ATCC 10031 (KP-SEN), evolved line 8",256
same,Relative MIC,"[1]; Klebsiella pneumoniae ATCC 10031 (KP-SEN), evolved line 9",256
same,Relative MIC,"[1]; Klebsiella pneumoniae ATCC 10031 (KP-SEN), evolved line 10",128
same,Relative MIC,[2]; evolved line 1 versus ancestor,1
same,Relative MIC,[2]; evolved line 2 versus ancestor,1
same,Relative MIC,[2]; evolved line 3 versus ancestor,1
